Converted amounts (≈) assume the structure as drawn.
tested on: leukemia L 1210 strain cells; experiment: cell proliferation test (colony formation, procedure of HAMBURGER and SALMON), continuous exposure; type: cell-based; details: Mus musculus, L1210, read-out: IC50 (continuous exposure)
Method: The experimental protocol was performed according to the procedure of HAMBURGER and SALMON on leukemia L 1210 strain cells. Some modifications were introduced in the procedure of HAMBURGER and SALMON, and in particular:
the conditioned medium was replaced by McCoy5A. The number of cells in a dish was reduced to 5×10^2 cells per dish on account of the high covering efficiency of leukemia L 1210. […]
In addition, parallel experiments were carried out with continuous incubation and with various concentrations of the test substance by mixing the latter with the upper layer before application.
The dishes were kept in an incubator with 5% CO2, 20% O2, at 95% relative humidity for 5 to 7 days at 37° C. After this period, the colonies having a diameter greater than 60 μm were counted with an inverted microscope.
The results were expressed as a percentage of the number of colonies formed from treated L 1210 relative to an untreated control. The coefficient of variation of repeated experiments was less than 15%.

SMILES | IC50 [µg/mL]
COc1cccc2c1C(=O)c1c(O)c3c(c(O)c1C2=O)C[C@@](O)(C(C)=O)C[C@@H]3O[C@H]1C[C@H](NCC#N)[C@H](O)[C@H](C)O1 [3'-N-(cyanomethyl)daunorubicin] | 0.0028 (≈ 0.00494 µM)
COCCN(CC#N)[C@H]1C[C@H](O[C@H]2C[C@](O)(C(C)=O)Cc3c(O)c4c(c(O)c32)C(=O)c2c(OC)cccc2C4=O)O[C@@H](C)[C@H]1O [3'-N-cyanomethyl-3'-N-(2-methoxyethyl)daunorubicin] | 0.09 (≈ 0.144 µM)

same assay, conditions: Mus musculus, L1210; L 1210 leukemia cells, continuous incubation, colonies >60 μm counted after 5 to 7 days at 37° C; read-out: IC50 (continuous exposure)

IC50 [µg/mL] | SMILES
0.08 (≈ 0.132 µM) | COc1cccc2c1C(=O)c1c(O)c3c(c(O)c1C2=O)C[C@@](O)(C(C)=O)C[C@@H]3O[C@H]1C[C@H](N(CC#N)CC#N)[C@H](O)[C@H](C)O1 [3'-N,N-bis(cyanomethyl)daunorubicin]
0.65 (≈ 0.862 µM) | CCN(CC)C(=O)CN(CC(=O)N(CC)CC)[C@H]1C[C@H](O[C@H]2C[C@](O)(C(C)=O)Cc3c(O)c4c(c(O)c32)C(=O)c2c(OC)cccc2C4=O)O[C@@H](C)[C@H]1O [3'-N,N-bis[(N,N-diethylcarbamoyl)methyl]daunorubicin]
0.01 (≈ 0.0171 µM) | COCCN[C@H]1C[C@H](O[C@H]2C[C@](O)(C(C)=O)Cc3c(O)c4c(c(O)c32)C(=O)c2c(OC)cccc2C4=O)O[C@@H](C)[C@H]1O [3'-N-(2-methoxyethyl)daunorubicin]
0.24 (≈ 0.4 µM) | COC(=O)CN[C@H]1C[C@H](O[C@H]2C[C@](O)(C(C)=O)Cc3c(O)c4c(c(O)c32)C(=O)c2c(OC)cccc2C4=O)O[C@@H](C)[C@H]1O [3'-N-(carbomethoxymethyl)daunorubicin]
0.07 (≈ 0.111 µM) | COCCOCCN[C@H]1C[C@H](O[C@H]2C[C@](O)(C(C)=O)Cc3c(O)c4c(c(O)c32)C(=O)c2c(OC)cccc2C4=O)O[C@@H](C)[C@H]1O [3'-N-[2-(2-methoxyethoxy)ethyl]daunorubicin]
0.28 (≈ 0.437 µM) | CCN(CC)C(=O)CN[C@H]1C[C@H](O[C@H]2C[C@](O)(C(C)=O)Cc3c(O)c4c(c(O)c32)C(=O)c2c(OC)cccc2C4=O)O[C@@H](C)[C@H]1O [3'-N-[(N,N-diethylcarbamoyl)methyl]daunorubicin]

SMILES | IC50 [µg/mL]
COCCOCCN(CCOCCOC)[C@H]1C[C@H](O[C@H]2C[C@](O)(C(C)=O)Cc3c(O)c4c(c(O)c32)C(=O)c2c(OC)cccc2C4=O)O[C@@H](C)[C@H]1O [3'-N,N-bis[2-(2-methoxyethoxy)ethyl]daunorubicin] | 0.22 (≈ 0.301 µM)
COc1cccc2c1C(=O)c1c(O)c3c(c(O)c1C2=O)C[C@@](O)(C(C)=O)C[C@@H]3O[C@H]1C[C@H](N)[C@H](O)[C@H](C)O1 [DAUNORUBICIN, daunorubicin, reference compound] | 0.02 (≈ 0.0379 µM)
COc1cccc2c1C(=O)c1c(O)c3c(c(O)c1C2=O)C[C@@](O)(C(=O)CO)C[C@@H]3O[C@H]1C[C@H](N)[C@H](O)[C@H](C)O1 [DOXORUBICIN, doxorubicin, reference compound] | 0.02 (≈ 0.0368 µM)

Reference: patent publication US4789665A, “Anthracyclines and drugs containing them” (Laboratoires Hoechst S. A., priority 1985, dated 1988)
